Experimental data reported in PMC8445792 (Applied Biological Chemistry, 2021).

How the values were obtained:
[1] = molecular target: H1N1 NA (A/California/04/2009) (Influenza A virus (A/California/04/2009(H1N1)), UniProt C3W5S3); experiment: biochemical; settings: read-out: % Inhibition ± SE H1N1 NA
[2] = molecular target: H5N1 NA (A/Anhui/1/2005) (Influenza A virus (A/Anhui/1/2005(H5N1)), UniProt A0A0C5AGB3); experiment: biochemical; settings: read-out: % Inhibition ± SE H5N1 NA

| Structure (SMILES) | inhibition at 100 µg/mL [1] [%] | inhibition at 100 µg/mL [2] [%] |
| --- | --- | --- |
| O=C(/C=C/c1ccc(F)cc1)c1ccc(O)cc1 [Compound 1a] | 21 ± 7 | 23 ± 11 |
| CC(C)Oc1ccc(C(=O)/C=C/c2ccc(F)cc2)cc1 [Compound 1b] | 5 ± 8 | 0 |
| O=C(/C=C/c1ccc([N+](=O)[O-])cc1)c1ccc(O)cc1 [Compound 2a] | 16 ± 2 | 21 ± 2 |
| COc1cc(C(=O)/C=C/c2ccc(OCc3ccccc3)c(OC)c2)ccc1O [Compound 2c] | 1 ± 4 |  |
| O=C(O)c1ccc(/C=C/C(=O)c2ccc(O)cc2)cc1 [Compound 3a] | 19 ± 2 | 27 |
| O=C(/C=C/c1ccc(F)cc1)c1ccc(OCc2ccccc2)cc1 [Compound 3b] | 2 ± 4 | 18 ± 3 |
| COc1cc(/C=C/C(=O)c2ccc(O)cc2)ccc1OCc1ccccc1 [Compound 3c] | 2 ± 4 | 7 ± 8 |
| O=C(/C=C/c1ccc([N+](=O)[O-])cc1)c1ccc(OC2CCCC2)cc1 [Compound 4b] | 5 ± 5 | 15 ± 3 |
| COc1cc(C=O)ccc1O [Vanillin, reference compound] | 86 ± 2 | 84 ± 4 |
